Columns and labels:
K-Ras G12D = biological target: T1, K-Ras G12D (Homo sapiens, UniProt P01116, G12D); test: HTRF resonance energy transfer assay, K-Ras G12D / SOS1 interaction; format: biochemical; settings: HTRF assay of Example 5; read-out: IC50 against K-Ras G12D
T1 construct: made in house; host or cells: E. coli BL21 (DE3)
Procedure, shortened: (§1)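 GST-tagged K-Ras (WT or mutant) bound to anti-GST-Eu donor was mixed with His-hSOS1 bound to anti-6His-XL665 acceptor in ~5 mM HEPES pH 7.4, 150 mM NaCl, 1 mM DTT, 0.05% BSA, 0.0025% Igepal. HTRF (ex 337, em 620/665 nm) was read after ~10 min or longer. IC50 came from the 665/620 ratio over duplicates from 10 μM to 0.01 μM.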

K-Ras G12S = biological target: T2, K-Ras G12S (Homo sapiens, UniProt P01116, G12S); test: HTRF resonance energy transfer assay, K-Ras G12S / SOS1 interaction; format: biochemical; settings: HTRF assay of Example 5; read-out: IC50 against K-Ras G12S
T2 construct: made in house; host or cells: E. coli BL21 (DE3)
T2 sequence (P01116 1-188 isoform P01116-2 G12S): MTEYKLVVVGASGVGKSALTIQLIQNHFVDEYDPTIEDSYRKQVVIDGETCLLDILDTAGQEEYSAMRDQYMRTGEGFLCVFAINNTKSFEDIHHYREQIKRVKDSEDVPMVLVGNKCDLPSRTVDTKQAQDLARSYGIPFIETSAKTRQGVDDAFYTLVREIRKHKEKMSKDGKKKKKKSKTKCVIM
Procedure, shortened: as §1

K-Ras G12V = biological target: T3, K-Ras G12V (Homo sapiens, UniProt P01116, G12V); test: HTRF resonance energy transfer assay, K-Ras G12V / SOS1 interaction; format: biochemical; settings: HTRF assay of Example 5; read-out: IC50 against K-Ras G12V
T3 construct: made in house; host or cells: E. coli BL21 (DE3)
T3 sequence (P01116 1-188 isoform P01116-2 G12V): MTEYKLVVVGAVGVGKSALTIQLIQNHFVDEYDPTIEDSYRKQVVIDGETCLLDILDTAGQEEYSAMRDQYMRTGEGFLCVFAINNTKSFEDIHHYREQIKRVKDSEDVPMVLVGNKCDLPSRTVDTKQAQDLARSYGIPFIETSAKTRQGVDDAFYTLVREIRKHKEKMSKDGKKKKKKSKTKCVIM
Procedure, shortened: as §1

K-Ras WT = biological target: T4, K-Ras WT (Homo sapiens, UniProt P01116); test: HTRF resonance energy transfer assay, K-Ras WT / SOS1 interaction; format: biochemical; settings: HTRF assay of Example 5; read-out: IC50 against K-Ras WT
T4 construct: made in house; host or cells: E. coli BL21 (DE3)
T4 sequence (P01116 1-188 isoform P01116-2): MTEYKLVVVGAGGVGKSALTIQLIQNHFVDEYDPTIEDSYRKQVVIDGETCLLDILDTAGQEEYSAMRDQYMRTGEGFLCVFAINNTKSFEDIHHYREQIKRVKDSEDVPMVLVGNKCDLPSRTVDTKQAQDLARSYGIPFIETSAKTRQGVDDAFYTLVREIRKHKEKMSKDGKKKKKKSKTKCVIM
Procedure, shortened: as §1

A549 cells = test: Ras cellular assay, growth of cells with K-Ras G12S mutation (CellTiter-Glo); format: cell-based; settings: Homo sapiens, cell growth, Example 9, G12S mutation, read-out: IC50 against A549 cells
Procedure, shortened: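 A549 cells (K-Ras G12S) in RPMI-1640 with 10% heat-inactivated FBS, seeded e.g. 800 per well in standard or ultra-low-attachment 384-well plates, treated next day with a dilution series (e.g. 10-point, 3-fold). Viability by CellTiter-Glo luminescence about 6 days later; IC50 from four-parameter fit.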

SW620 cells = test: Ras cellular assay, growth of cells with K-Ras G12V mutation (CellTiter-Glo); format: cell-based; settings: Homo sapiens, SW-620; cell growth, Example 9, G12V mutation; read-out: IC50 against SW620 cells
Procedure, shortened: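 SW620 (K-Ras G12V) cells, e.g. 800/well in RPMI-1640 with 10% heat-inactivated FBS on standard or ultra-low attachment plates, were dosed the day after plating with e.g. a 10-point 3-fold series. Viability by CellTiter-Glo luminescence about 6 days later; IC50 from four-parameter fit.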

T1 sequence (P01116 1-188 isoform P01116-2 G12D): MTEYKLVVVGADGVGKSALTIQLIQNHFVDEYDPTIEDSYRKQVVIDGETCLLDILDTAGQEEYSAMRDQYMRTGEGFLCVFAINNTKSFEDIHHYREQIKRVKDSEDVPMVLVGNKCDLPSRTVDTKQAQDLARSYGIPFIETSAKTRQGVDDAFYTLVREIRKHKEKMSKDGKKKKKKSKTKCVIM

Row | IC50 (K-Ras G12D) [nM] | IC50 (K-Ras G12S) [nM] | IC50 (K-Ras G12V) [nM] | IC50 (K-Ras WT) [nM] | IC50 (A549 cells) [nM] | IC50 (SW620 cells) [nM] | Structure (SMILES)
1 | < 100 | < 100 | < 100 | < 100 | < 5000 | < 5000 | N#Cc1c(N)sc2c(F)ccc(-c3c(Cl)c4c5c(nc(OCC67CCCN6C[C@H](F)C7)nc5c3F)N(C3CCCOCC3)CCO4)c12 (stereo partly drawn) [Compound 902, 2-amino-4-(8-chloro-10-fluoro-2-(((2R)-2-fluorotetrahydro-1H-pyrrolizin-7a(5H)-yl)methoxy)-4-(oxepan-4-yl)-5,6-dihydro-4H-[1,4]oxazepino[5,6,7-de]quinazolin-9-yl)-7-fluorobenzo[b]thiophene-3-carbonitrile]
2 | < 100 | < 100 | < 100 | < 100 | < 5000 | < 5000 | CNC(=O)C1CCC(N2CCOc3c(Cl)c(-c4ccc(F)c5sc(N)c(C#N)c45)c(F)c4nc(OC[C@@]56CCCN5C[C@H](F)C6)nc2c34)CC1 (stereo partly drawn) [Compound 1120, 4-(9-(2-amino-3-cyano-7-fluorobenzo[b]thiophen-4-yl)-8-chloro-10-fluoro-2-(((2R,7aS)-2-fluorotetrahydro-1H-pyrrolizin-7a(5H)-yl)methoxy)-5,6-dihydro-4H-[1,4]oxazepino[5,6,7-de]quinazolin-4-yl)-N-methylcyclohexane-1-carboxamide]
3 | < 100 | < 100 | < 100 | < 100 | < 5000 | < 5000 | C[C@H]1CN([C@@H]2CCOC2)c2nc(OC[C@@]34CCCN3C[C@H](F)C4)nc3c(F)c(-c4ccc(F)c5sc(N)c(C#N)c45)c(Cl)c(c23)O1 [Compound 958, 2-amino-4-((6S)-8-chloro-10-fluoro-2-(((2R,7aS)-2-fluorotetrahydro-1H-pyrrolizin-7a(5H)-yl)methoxy)-6-methyl-4-((R)-tetrahydrofuran-3-yl)-5,6-dihydro-4H-[1,4]oxazepino[5,6,7-de]quinazolin-9-yl)-7-fluorobenzo[b]thiophene-3-carbonitrile]
4 | < 100 | < 100 | < 100 | < 100 | < 5000 | < 5000 | N#CCC(=O)N1CCC(N2CCOc3c(Cl)c(-c4ccc(F)c5sc(N)c(C#N)c45)c(F)c4nc(OC[C@@]56CCCN5C[C@H](F)C6)nc2c34)C1 (stereo partly drawn) [Compound 626, 2-amino-4-(8-chloro-4-(1-(2-cyanoacetyl)pyrrolidin-3-yl)-10-fluoro-2-(((2R,7aS)-2-fluorotetrahydro-1H-pyrrolizin-7a(5H)-yl)methoxy)-5,6-dihydro-4H-[1,4]oxazepino[5,6,7-de]quinazolin-9-yl)-7-fluorobenzo[b]thiophene-3-carbonitrile]
5 | < 100 | < 100 | < 100 | < 100 | < 5000 | < 5000 | N#Cc1c(N)sc2c(F)ccc(-c3c(Cl)c4c5c(nc(OC[C@@]67CCCN6C[C@H](F)C7)nc5c3F)N(C3CCC(NC=O)C3)CCO4)c12 (stereo partly drawn) [Compound 829, N-(3-(9-(2-amino-3-cyano-7-fluorobenzo[b]thiophen-4-yl)-8-chloro-10-fluoro-2-(((2R,7aS)-2—fluorotetrahydro-1H-pyrrolizin-7a(5H)-yl)methoxy)-5,6-dihydro-4H-[1,4]oxazepino[5,6,7-de]quinazolin-4-yl)cyclopentyl)formamide]
6 | < 100 | < 100 | < 100 | < 100 | < 5000 | < 5000 | N#Cc1c(N)sc2c(F)ccc(-c3c(Cl)c4c5c(nc(OC[C@@]67CCCN6C[C@H](F)C7)nc5c3F)N(C3CCCC3)CCO4)c12 [Compound 639, 2-amino-4-(8-chloro-4-cyclopentyl-10-fluoro-2-(((2R,7aS)-2-fluorotetrahydro-1H-pyrrolizin-7a(5H)-yl)methoxy)-5,6-dihydro-4H-[1,4]oxazepino[5,6,7-de]quinazolin-9-yl)-7-fluorobenzo[b]thiophene-3-carbonitrile]
7 | < 100 | < 100 | < 100 | < 100 | < 5000 | < 5000 | CNC(=O)C1CCCC(N2CCOc3c(Cl)c(-c4ccc(F)c5sc(N)c(C#N)c45)c(F)c4nc(OC[C@@]56CCCN5C[C@H](F)C6)nc2c34)C1 (stereo partly drawn) [Compound 841, 3-(9-(2-amino-3-cyano-7-fluorobenzo[b]thiophen-4-yl)-8-chloro-10-fluoro-2-(((2R,7aS)-2-fluorotetrahydro-1H-pyrrolizin-7a(5H)-yl)methoxy)-5,6-dihydro-4H-[1,4]oxazepino[5,6,7-de]quinazolin-4-yl)-N-methylcyclohexane-1-carboxamide]
8 | < 100 | < 100 | < 100 | < 100 | < 5000 | < 5000 | C[C@H]1CN(C2CC2)c2nc(OC[C@@]34CCCN3C[C@H](F)C4)nc3c(F)c(-c4ccc(F)c5sc(N)c(C#N)c45)c(Cl)c(c23)O1 [Compound 1044, 2-amino-4-((6S)-8-chloro-4-cyclopropyl-10-fluoro-2-(((2R,7aS)-2-fluorotetrahydro-1H-pyrrolizin-7a(5H)-yl)methoxy)-6-methyl-5,6-dihydro-4H-[1,4]oxazepino[5,6,7-de]quinazolin-9-yl)-7-fluorobenzo[b]thiophene-3-carbonitrile]
9 | < 100 | < 100 | < 100 | < 100 | < 5000 | < 5000 | N#Cc1c(N)sc2c(F)ccc(-c3c(Cl)c4c5c(nc(OC[C@@]67CCCN6C[C@H](F)C7)nc5c3F)N(C3CCCN(C=O)CC3)CCO4)c12 (stereo partly drawn) [Compound 601, 2-amino-4-(8-chloro-10-fluoro-2-(((2R,7aS)-2-fluorotetrahydro-1H-pyrrolizin-7a(5H)-yl)methoxy)-4-(1-formylazepan-4-yl)-5,6-dihydro-4H-[1,4]oxazepino[5,6,7-de]quinazolin-9-yl)-7-fluorobenzo[b]thiophene-3-carbonitrile]
10 | < 100 | < 100 | < 100 | < 100 | < 5000 | < 5000 | CC(COC(F)F)N1CCOc2c(Cl)c(-c3ccc(F)c4sc(N)c(C#N)c34)c(F)c3nc(OC[C@@]45CCCN4C[C@H](F)C5)nc1c23 (stereo partly drawn) [Compound 973, 2-amino-4-(8-chloro-4-(1-(difluoromethoxy)propan-2-yl)-10-fluoro-2-(((2R,7aS)-2-fluorotetrahydro-1H-pyrrolizin-7a(5H)-yl)methoxy)-5,6-dihydro-4H-[1,4]oxazepino[5,6,7-de]quinazolin-9-yl)-7-fluorobenzo[b]thiophene-3-carbonitrile]
11 | < 100 | < 100 | < 100 | < 100 | < 5000 | < 5000 | CC1(C)CCC(N2CCOc3c(Cl)c(-c4ccc(F)c5sc(N)c(C#N)c45)c(F)c4nc(OC[C@@]56CCCN5C[C@H](F)C6)nc2c34)CO1 (stereo partly drawn) [Compound 603, 2-amino-4-(8-chloro-4-(6,6-dimethyltetrahydro-2H-pyran-3-yl)-10-fluoro-2-(((2R,7aS)-2-fluorotetrahydro-1H-pyrrolizin-7a(5H)-yl)methoxy)-5,6-dihydro-4H-[1,4]oxazepino[5,6,7-de]quinazolin-9-yl)-7-fluorobenzo[b]thiophene-3-carbonitrile]
12 | < 100 | < 100 | < 100 | < 100 | < 5000 | < 5000 | Cc1cc(N)nc(-c2c(Cl)c3c4c(nc(OC[C@@]56CCCN5C[C@H](F)C6)nc4c2F)N(CC(F)F)CCO3)c1I [Compound 909, 6-(8-chloro-4-(2,2-difluoroethyl)-10-fluoro-2-(((2R,7aS)-2-fluorotetrahydro-1H-pyrrolizin-7a(5H)-yl)methoxy)-5,6-dihydro-4H-[1,4]oxazepino[5,6,7-de]quinazolin-9-yl)-5-iodo-4-methylpyridin-2-amine]
13 | < 100 | < 100 | < 100 | < 100 | < 5000 | < 5000 | C[C@H]1CN(C2CCN(C(=O)C3CC3C#N)CC2)c2nc(OC[C@@]34CCCN3C[C@H](F)C4)nc3c(F)c(-c4ccc(F)c5sc(N)c(C#N)c45)c(Cl)c(c23)O1 (stereo partly drawn) [Compound 1051, 2-amino-4-((6S)-8-chloro-4-(1-(2-cyanocyclopropane-1-carbonyl)piperidin-4-yl)-10-fluoro-2-(((2R,7aS)-2-fluorotetrahydro-1H-pyrrolizin-7a(5H)-yl)methoxy)-6-methyl-5,6-dihydro-4H-[1,4]oxazepino[5,6,7-de]quinazolin-9-yl)-7-fluorobenzo[b]thiophene-3-carbonitrile]
